Calls of active or inactive are those of the source.
Columns and labels:
HEK293 [1] = test: cells; type: functional, cell-based; conditions: Homo sapiens
[2] = target: T1, Nucleotide-binding oligomerization domain-containing protein 1 (Homo sapiens, UniProt Q9Y239); test: blockers of NOD1 pathway activity – revised, SAR follow-up (AID 2333); type: functional
T1 sequence (Q9Y239 whole entry): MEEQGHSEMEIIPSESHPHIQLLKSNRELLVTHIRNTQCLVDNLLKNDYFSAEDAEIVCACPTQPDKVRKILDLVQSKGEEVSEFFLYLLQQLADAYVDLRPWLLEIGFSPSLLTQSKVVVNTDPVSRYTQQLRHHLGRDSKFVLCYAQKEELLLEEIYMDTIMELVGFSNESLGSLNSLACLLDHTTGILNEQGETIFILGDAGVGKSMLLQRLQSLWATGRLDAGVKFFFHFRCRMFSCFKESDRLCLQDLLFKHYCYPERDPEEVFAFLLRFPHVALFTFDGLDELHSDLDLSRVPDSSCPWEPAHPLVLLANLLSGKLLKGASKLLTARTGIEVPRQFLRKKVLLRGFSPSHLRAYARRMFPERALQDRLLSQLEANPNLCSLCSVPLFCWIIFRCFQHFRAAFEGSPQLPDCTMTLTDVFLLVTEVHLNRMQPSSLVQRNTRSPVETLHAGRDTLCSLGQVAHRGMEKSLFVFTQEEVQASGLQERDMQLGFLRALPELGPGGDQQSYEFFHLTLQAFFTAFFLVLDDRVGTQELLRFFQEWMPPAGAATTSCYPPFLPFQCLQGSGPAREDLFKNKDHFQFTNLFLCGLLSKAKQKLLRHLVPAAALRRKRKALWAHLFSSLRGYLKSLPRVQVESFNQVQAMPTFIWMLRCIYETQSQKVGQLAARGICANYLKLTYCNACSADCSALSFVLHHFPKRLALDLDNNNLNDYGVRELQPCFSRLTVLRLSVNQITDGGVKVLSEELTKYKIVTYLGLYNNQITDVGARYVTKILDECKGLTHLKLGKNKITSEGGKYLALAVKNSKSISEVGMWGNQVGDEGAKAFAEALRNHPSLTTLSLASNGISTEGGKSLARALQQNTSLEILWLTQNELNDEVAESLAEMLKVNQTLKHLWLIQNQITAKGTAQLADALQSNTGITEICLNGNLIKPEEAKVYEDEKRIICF

HEK293 [3] = test: cells; conditions: Homo sapiens
HEK293 [4] = test: cells; type: functional, cell-based; conditions: Homo sapiens; remark: listed apart in the source
HEK293 [5] = test: inhibition of NOD1-driven NF-kB reporter – cell-based, luminescence, uHTS, primary screen (AID 1578); type: functional; conditions: Homo sapiens
Tumor necrosis factor = Tumor necrosis factor (Homo sapiens, UniProt P01375); test: analog potency on TNFa NF-kB signaling – cell-based, revised, SAR follow-up (AID 2337); type: functional
Chain of Tumor necrosis factor (P01375 whole entry): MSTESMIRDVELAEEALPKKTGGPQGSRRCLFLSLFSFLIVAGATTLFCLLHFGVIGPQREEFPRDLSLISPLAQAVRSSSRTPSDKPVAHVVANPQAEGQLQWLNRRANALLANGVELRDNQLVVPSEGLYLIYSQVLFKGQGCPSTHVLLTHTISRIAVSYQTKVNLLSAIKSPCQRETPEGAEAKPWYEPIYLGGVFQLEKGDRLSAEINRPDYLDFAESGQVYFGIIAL

HEK293 [6] = test: NOD2 signaling inhibitors in MDP-stimulated cells, cell-based, uHTS, luminescence (AID 2001); type: functional; conditions: Homo sapiens
[7] = target: Nucleotide-binding oligomerization domain-containing protein 2 (Homo sapiens, UniProt Q9HC29); test: PubChem AID 2334; type: functional
Chain of Nucleotide-binding oligomerization domain-containing protein 2 (Q9HC29 whole entry, the tested form may be a part): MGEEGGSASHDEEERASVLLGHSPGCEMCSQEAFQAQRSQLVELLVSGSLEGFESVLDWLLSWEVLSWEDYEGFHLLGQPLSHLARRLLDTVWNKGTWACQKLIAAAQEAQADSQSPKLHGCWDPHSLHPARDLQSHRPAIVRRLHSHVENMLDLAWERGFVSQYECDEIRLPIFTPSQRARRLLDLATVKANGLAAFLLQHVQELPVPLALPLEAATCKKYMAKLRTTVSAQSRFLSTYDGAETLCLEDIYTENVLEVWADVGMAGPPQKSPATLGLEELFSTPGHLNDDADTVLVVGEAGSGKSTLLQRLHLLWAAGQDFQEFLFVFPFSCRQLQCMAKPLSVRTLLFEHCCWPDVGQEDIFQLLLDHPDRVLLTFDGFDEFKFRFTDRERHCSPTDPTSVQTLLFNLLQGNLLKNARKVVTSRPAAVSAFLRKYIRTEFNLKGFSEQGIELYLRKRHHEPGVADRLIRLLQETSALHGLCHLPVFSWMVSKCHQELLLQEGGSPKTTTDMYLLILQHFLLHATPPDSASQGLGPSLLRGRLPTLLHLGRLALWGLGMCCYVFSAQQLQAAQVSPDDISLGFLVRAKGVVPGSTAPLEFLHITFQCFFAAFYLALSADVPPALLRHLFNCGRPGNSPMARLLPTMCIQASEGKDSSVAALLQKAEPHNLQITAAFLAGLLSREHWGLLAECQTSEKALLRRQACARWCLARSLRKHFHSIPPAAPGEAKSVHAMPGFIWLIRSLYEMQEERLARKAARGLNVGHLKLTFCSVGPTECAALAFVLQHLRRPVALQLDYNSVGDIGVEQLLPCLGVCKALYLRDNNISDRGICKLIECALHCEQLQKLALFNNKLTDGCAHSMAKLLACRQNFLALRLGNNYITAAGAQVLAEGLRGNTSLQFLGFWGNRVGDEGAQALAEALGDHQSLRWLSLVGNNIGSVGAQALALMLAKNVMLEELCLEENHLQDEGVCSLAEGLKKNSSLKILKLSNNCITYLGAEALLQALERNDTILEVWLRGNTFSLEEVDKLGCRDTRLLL

[8] = target: T2, Lysosomal acid glucosylceramidase (Homo sapiens, UniProt P04062); test: Dose response cell-based high throughput screening assay to identify enhancers of beta-glucosidase activity. [Related pubchem assays: 784 ]; type: functional
T2 sequence (P04062 whole entry): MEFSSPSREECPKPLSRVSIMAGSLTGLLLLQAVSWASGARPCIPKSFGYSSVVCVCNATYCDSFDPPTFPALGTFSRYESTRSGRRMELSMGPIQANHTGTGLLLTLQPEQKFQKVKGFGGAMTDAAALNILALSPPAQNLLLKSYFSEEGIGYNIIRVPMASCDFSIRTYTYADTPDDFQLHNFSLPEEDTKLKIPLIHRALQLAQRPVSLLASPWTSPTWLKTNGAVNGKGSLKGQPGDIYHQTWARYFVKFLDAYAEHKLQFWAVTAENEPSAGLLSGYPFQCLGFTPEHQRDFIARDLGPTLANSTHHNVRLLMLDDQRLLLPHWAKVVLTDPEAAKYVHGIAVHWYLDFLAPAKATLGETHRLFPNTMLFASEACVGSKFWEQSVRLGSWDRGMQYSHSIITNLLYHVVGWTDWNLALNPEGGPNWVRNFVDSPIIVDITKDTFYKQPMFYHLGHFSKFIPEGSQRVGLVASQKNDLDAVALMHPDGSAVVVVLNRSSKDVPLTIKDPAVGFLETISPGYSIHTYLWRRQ

[9] = target: T3, Scavenger receptor class B member 1 (Mus musculus, UniProt Q61009); test: mouse SR-BI DiI-HDL uptake blockers – ldlA[mSR-BI] cells, fluorescence, cherry pick, dose response (AID 493194); type: functional, cell-based;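 note: cellular uptake of fluorescent DiI-labeled HDL measured as cell fluorescence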
T3 sequence (Q61009 whole entry): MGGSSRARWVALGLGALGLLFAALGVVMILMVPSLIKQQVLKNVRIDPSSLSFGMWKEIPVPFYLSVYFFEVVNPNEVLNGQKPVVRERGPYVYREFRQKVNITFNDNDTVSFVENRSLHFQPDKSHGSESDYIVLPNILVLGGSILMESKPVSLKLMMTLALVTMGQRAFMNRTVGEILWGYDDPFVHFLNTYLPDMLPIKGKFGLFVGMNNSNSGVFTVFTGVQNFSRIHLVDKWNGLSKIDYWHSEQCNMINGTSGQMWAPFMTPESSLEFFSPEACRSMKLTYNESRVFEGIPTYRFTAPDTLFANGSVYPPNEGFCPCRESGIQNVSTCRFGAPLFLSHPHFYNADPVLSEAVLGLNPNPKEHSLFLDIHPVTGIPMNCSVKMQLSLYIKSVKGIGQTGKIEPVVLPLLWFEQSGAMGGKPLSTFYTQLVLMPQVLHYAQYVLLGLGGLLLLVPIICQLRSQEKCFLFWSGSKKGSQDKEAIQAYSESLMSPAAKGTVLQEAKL

Streptokinase A = target: T4, Streptokinase A (Streptococcus pyogenes serotype M1, UniProt P10520); test: viability-normalized secreted streptokinase activity reduction – plasminogen activation absorbance, OD405, dose response (AID 1914); type: functional, Streptococcus pyogenes M1 GAS;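 note: secreted streptokinase activity via plasminogen activation per viability signal from cell pellet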
T4 sequence (P10520 whole entry): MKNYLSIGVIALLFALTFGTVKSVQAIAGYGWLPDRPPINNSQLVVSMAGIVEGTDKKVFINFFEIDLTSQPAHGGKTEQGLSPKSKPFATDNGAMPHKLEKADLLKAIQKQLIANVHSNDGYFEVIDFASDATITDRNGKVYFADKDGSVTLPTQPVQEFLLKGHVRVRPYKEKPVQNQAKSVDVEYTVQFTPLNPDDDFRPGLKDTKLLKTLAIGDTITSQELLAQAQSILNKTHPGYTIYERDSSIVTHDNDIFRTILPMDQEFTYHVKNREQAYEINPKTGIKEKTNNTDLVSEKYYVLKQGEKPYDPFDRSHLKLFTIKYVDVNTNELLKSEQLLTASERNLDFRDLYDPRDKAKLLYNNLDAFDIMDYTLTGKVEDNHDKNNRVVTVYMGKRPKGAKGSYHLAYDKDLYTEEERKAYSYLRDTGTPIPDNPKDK

Streptococcus = test: GAS UMAA2166 growth inhibition – luminescence, BacTiterGlo, counter-screen for streptokinase expression inhibitor project, dose response (AID 1915); type: functional, organism-based;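 note: potency for reduction of bacterial viability or growth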
Beta-galactosidase [10] = target: T5, Beta-galactosidase (Escherichia coli, UniProt Q8VNN2); test: PubChem AID 485352; type: functional
T5 sequence (Q8VNN2 whole entry): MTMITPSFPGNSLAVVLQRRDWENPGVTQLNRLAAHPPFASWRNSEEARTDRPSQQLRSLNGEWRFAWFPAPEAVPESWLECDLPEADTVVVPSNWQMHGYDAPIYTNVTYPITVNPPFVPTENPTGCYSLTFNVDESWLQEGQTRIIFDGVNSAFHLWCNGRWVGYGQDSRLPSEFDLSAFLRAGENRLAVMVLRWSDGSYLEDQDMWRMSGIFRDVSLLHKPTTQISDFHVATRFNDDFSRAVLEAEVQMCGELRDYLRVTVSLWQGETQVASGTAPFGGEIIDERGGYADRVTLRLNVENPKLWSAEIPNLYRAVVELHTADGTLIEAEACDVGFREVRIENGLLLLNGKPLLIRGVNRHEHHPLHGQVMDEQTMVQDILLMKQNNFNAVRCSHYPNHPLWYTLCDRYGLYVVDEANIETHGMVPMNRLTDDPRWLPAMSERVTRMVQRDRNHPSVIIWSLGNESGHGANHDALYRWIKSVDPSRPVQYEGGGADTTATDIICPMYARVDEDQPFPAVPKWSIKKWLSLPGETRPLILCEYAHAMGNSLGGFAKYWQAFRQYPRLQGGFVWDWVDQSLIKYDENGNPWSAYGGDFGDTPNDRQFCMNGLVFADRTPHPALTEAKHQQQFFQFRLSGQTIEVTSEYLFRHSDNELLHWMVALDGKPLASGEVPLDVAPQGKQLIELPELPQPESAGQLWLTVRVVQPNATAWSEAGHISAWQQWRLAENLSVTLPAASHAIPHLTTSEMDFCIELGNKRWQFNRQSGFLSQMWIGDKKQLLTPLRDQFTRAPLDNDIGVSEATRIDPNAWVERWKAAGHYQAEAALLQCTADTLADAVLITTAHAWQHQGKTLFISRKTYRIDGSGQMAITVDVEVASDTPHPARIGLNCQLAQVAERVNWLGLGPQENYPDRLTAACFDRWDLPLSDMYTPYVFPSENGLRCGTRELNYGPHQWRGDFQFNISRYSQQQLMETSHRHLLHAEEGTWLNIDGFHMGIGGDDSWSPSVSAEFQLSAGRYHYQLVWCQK

[11] = target: T6, Kappa-type opioid receptor (Homo sapiens, UniProt P41145); type: functional
T6 sequence (P41145 whole entry): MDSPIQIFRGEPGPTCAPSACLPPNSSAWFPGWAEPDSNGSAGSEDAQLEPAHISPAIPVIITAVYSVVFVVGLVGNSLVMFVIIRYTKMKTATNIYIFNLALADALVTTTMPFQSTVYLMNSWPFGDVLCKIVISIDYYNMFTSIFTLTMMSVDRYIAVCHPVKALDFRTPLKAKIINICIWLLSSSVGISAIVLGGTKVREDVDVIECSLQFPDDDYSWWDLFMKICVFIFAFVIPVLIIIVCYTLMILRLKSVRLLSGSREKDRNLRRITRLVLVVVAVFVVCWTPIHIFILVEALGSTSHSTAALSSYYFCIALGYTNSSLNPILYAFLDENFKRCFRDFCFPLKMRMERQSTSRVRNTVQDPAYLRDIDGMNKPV

[12] = tested on: Streptococcus sp. 'group A'; test: Streptococcus pyogenes SK(-)GAS viability under kanamycin – luminescence, BacTiterGlo, confirmation, counter-screen for streptokinase expression inhibitor project, dose response (AID 1900); type: functional, organism-based
[13] = Trypanosoma cruzi growth suppression in host cells – NIH3T3 host cells, beta-gal luminescence, confirmation (AID 2044); type: functional, cell-based;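 note: intracellular parasites grown in NIH/3T3 mouse fibroblasts as host cells; luminescent beta-galactosidase reporter signal from transgenic T. cruzi replicating inside host cells; inhibitors lower the luminescence signal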
Estrogen receptor = target: T7, Estrogen receptor (Homo sapiens, UniProt P03372);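 note: potency for inhibiting coactivator peptide recruitment to the receptor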
T7 sequence (P03372 whole entry): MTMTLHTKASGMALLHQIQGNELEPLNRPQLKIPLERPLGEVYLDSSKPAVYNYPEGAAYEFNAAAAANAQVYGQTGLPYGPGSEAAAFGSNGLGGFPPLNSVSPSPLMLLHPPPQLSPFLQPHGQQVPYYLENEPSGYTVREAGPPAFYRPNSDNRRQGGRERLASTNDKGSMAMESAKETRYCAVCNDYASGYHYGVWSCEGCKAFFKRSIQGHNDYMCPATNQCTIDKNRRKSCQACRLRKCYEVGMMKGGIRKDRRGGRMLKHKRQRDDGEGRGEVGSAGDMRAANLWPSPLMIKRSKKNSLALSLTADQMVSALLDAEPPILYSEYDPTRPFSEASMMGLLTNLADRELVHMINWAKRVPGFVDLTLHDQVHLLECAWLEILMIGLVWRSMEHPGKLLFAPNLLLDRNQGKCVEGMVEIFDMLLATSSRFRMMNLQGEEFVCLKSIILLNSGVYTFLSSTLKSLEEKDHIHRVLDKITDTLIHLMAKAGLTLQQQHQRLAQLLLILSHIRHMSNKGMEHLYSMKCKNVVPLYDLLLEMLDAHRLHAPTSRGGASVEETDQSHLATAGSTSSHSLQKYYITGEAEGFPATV

Beta-galactosidase [14] = target: T5, Beta-galactosidase; type: functional
[15] = target: T6, Kappa-type opioid receptor; type: functional; remark: listed apart in the source
[16] = NIH3T3 cell viability loss – ATP luminescence, mouse fibroblasts, counter-screen, dose response (AID 2010); type: functional, cell-based;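 note: cells exposed to compound for about 90 hours before reading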
[17] = target: T8, Type-1 angiotensin II receptor (Homo sapiens, UniProt P30556); test: antagonism of angiotensin II type 1 receptor – cell-based, uHTS hits, selectivity assay for APJ receptor antagonist project, dose response (AID 463214); type: functional;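 note: antagonist potency against angiotensin II stimulated AT1 response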
T8 sequence (P30556 whole entry): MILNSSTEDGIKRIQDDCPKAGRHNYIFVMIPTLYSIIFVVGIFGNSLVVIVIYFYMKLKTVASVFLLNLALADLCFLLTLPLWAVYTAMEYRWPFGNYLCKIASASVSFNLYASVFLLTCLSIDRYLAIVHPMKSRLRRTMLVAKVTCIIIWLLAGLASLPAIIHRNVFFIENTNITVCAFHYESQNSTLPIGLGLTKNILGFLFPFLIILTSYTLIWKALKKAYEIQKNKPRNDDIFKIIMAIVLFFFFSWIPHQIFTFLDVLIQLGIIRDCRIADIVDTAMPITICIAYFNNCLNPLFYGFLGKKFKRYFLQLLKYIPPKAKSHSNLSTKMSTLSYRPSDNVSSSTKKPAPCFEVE

[18] = target: Polyadenylate-binding protein 1 (Homo sapiens, UniProt P11940); test: PABP inhibition in translation initiation, SAR follow-up (AID 435018); type: functional
Chain of Polyadenylate-binding protein 1 (P11940 whole entry): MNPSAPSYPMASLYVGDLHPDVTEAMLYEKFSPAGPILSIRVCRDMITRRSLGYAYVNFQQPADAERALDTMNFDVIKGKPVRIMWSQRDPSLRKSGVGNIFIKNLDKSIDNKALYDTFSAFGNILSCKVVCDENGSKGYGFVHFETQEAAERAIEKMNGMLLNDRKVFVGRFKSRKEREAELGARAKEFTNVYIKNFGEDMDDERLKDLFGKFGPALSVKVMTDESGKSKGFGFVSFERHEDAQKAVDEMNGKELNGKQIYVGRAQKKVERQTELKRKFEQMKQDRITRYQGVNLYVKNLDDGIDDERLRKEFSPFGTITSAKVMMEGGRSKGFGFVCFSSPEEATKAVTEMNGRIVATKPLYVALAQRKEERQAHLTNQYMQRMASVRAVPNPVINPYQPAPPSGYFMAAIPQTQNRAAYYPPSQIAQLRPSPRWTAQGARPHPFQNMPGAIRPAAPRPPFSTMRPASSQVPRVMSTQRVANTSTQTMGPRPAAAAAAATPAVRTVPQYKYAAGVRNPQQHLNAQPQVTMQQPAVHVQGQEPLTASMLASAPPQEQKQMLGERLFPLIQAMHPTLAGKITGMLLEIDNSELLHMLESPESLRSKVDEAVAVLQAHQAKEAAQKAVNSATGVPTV

[19] = target: Eukaryotic translation initiation factor 4H (Homo sapiens, UniProt Q15056); test: inhibitors of translation initiation factor eIF4H – SAR follow-up (AID 435011); type: functional
[20] = target: Dual specificity protein phosphatase 3 (Homo sapiens, UniProt P51452); test: inhibition constants for human DUSP3 – biochemical, colorimetric, SAR follow-up (AID 2004)
Chain of Dual specificity protein phosphatase 3 (P51452 whole entry): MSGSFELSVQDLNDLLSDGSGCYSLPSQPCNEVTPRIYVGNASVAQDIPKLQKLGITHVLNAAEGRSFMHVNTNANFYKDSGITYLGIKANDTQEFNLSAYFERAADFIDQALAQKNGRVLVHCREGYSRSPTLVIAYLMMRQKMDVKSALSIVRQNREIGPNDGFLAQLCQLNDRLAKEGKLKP

[21] = Luminescence Cell-Based Dose Response HTS to Identify Inhibitors of 5'UTR Stem-Loop Driven Prion Protein mRNA Translation in H4 Neuroglioblastoma Cells. [Related pubchem assays: 1827 (Project Summary), 1813 (Primary HTS)]; type: functional
[22] = luciferase reporter signal suppression in cells – H4 neuroglioma cells, luminescence, dose response (AID 1990); type: functional, cell-based
[23] = alpha-synuclein stem-loop luciferase translation blockers – H4 neuroglioma cells, luminescence, confirmation (AID 1988); type: functional, cell-based
[24] = target: G-protein coupled receptor 55 (Homo sapiens, UniProt Q9Y2T6); test: inhibition of LPI-stimulated GPR55 beta-arrestin translocation – imaging, U2OS, beta-arrestin-GFP, LPI agonist, primary screen (AID 2013); type: functional;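 note: antagonist potency measured as reduced agonist-driven arrestin aggregation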
Chain of G-protein coupled receptor 55 (Q9Y2T6 whole entry): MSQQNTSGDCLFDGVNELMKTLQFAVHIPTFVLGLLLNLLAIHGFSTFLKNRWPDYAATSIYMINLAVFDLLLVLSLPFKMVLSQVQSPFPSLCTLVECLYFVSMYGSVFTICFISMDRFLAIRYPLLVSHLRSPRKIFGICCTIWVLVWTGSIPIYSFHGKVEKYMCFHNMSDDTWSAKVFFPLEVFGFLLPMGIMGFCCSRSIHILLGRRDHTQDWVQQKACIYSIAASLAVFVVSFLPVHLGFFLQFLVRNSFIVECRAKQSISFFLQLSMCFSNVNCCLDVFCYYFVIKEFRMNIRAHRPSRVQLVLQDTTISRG

CCCCn1c(SCC(=O)Nc2nnc(C(C)C)s2)nc2c1c(=O)n(C)c(=O)n2C
IC50 (HEK293 [1]): > 20 µM (inactive) | IC50 [2]: 5.79 µM (active) | IC50 (HEK293 [3]): > 20 µM (inactive) | IC50 (HEK293 [4]): > 20 µM (inactive) | EC50 (HEK293 [5]): 7.02 µM (active) | IC50 (Tumor necrosis factor): 5.82 µM (active) | IC50 (HEK293 [6]): 9.58 µM (active) | IC50 [7]: 6.89 µM (active)

COc1cc2c(C(=O)NCCCN3CCN(c4cccc(Cl)c4)CC3)cn(C)c(=O)c2cc1OC
EC50 [8]: > 50 µM (not active)

CCN1CCN(C(c2ccc(OC)c(OC)c2)c2nnnn2C(C)(C)C)CC1 (stereo unspecified)
EC50 [8]: > 50 µM (not active)

COc1ccc(OC)c(CCNC(=O)c2ccc3c(c2)N(Cc2ccc(F)cc2)CCS3)c1
AC50 [9]: 1.7 µM (active)

Oc1c(/C=N/c2cccc3cccnc23)sc2ccccc12
EC50 (Streptokinase A): > 150 µM (not active) | EC50 (Streptococcus): 9.99 µM (active) | EC50 (Beta-galactosidase [10]): > 40 µM (inactive) | IC50 [11]: 4.86 µM (active) | EC50 [12]: 7.7 µM (active) | EC50 [13]: 2.58 µM (active) | IC50 (Estrogen receptor): 5.15 µM (active) | EC50 (Beta-galactosidase [14]): > 31.5 µM (inactive) | IC50 [15]: 1.12 µM | EC50 [16]: > 60 µM (not active) | IC50 [17]: 2.78 µM (active)

COc1ccc(C(=O)Nc2cccc3ncccc23)cc1
IC50 [18]: > 100 µM (inactive) | IC50 [19]: > 100 µM (inactive)

CCOc1cc(/C=C2/N=C(c3ccc(NC(C)=O)cc3)OC2=O)ccc1OCc1ccccc1
Ki [20]: 22.9 µM (inactive)

CCc1cc2cc3c(cc2nc1SCC(=O)OC(C)C)OCO3
AC50 [9]: 0.366 µM (active)

COc1ccc(C2c3ccc(O)cc3Oc3ncn4nc(-c5cccnc5)nc4c32)cc1OC (stereo unspecified)
EC50 [21]: 52.3 µM (active) | EC50 [22]: > 120 µM (not active) | EC50 [23]: > 120 µM (not active) | IC50 [24]: 1.99 µM (active)

CCOc1ccccc1Nc1nc(-c2sc(NC(=O)c3cccc(Cl)c3)nc2C)cs1
AC50 [9]: 5.75 µM (active)

CCN1C(=O)/C(=C/c2ccoc2)C(=O)NC1=S
Ki [20]: 56.7 µM (inactive)

Nc1nc2ccccc2n1Cc1ccccc1Cl
IC50 [2]: 12.9 µM (active) | IC50 (HEK293 [3]): > 20 µM (inactive) | IC50 (Tumor necrosis factor): 12.5 µM (active) | IC50 [7]: 15.3 µM (active)
